Experiments:
L02 cells [1] = assay: FFA-induced lipid accumulation model in L02 cells (TG and ALT kits, Oil Red O); assay type: cell-based, human; settings: 0.9 mM FFA
Experimental: Free fatty acids (FFAs, OA:PA = 2:1) were used to induce the lipid model in L02 cells (Guangzhou Huatuo Biological Technology Co., Ltd., Guangzhou, China). The L02 cells (1 × 10^5 cells/mL) were inoculated in 12-well plates. After 24 h, the cells were starved for 12 h and then treated with DMSO or FFAs for 24 h. Subsequently, the cells were exposed to fenofibric acid (100 μM) or 3d (10, 20, 40 μM) for another 24 h.
The cells were collected and lysed using cell lysis solution; the supernatants were subjected to triglycerides (TGs) and alanine aminotransferase (ALT) kit assays. Moreover, following the completion of the treatment, the cells were fixed with 4% paraformaldehyde and stained with an Oil Red O, with the objective of observing the morphology under an inverted microscope.

gut microbiota = assay: Gut microbiota composition by 16S rRNA sequencing in MASH mice; assay type: in vivo
Experimental: Proteome sequencing of liver tissue samples was performed according to the specific requirements of the protocol by Beijing Qinglian Baiao Biotechnology Co., Ltd. (Beijing, China). Mouse fecal samples were collected and frozen in liquid nitrogen and stored at −80 °C.
Total DNA was extracted by QIAamp DNA Stool Mini Kit, homogenized by lysis buffer, digested by proteinase, and purified by a centrifugal column and then passed through NanoDrop and agarose gel electrophoresis for quality control. PCR amplification was performed with primers specific to the V3-V4 region of the bacterial 16S rRNA gene (341F: 5′-CCTAYGGGRBGCASCAG-3′; 806R: 5′-[…]-3′), and the reaction system consisted of 2 × Taq PCR Master Mix, and the program was 95 °C pre-denaturation for […] (95 °C for 30 s, 55 °C for 30 s, 72 °C for 45 s) and extension at 72 °C for 10 min. After purification, bipartite sequencing was performed using the Illumina MiSeq PE300 platform. After QIIME2 quality control, the raw data were clustered into OTUs with 97% similarity, and the species were annotated based on the Silva database to analyze the Alpha/Beta diversity and differential flora.

L02 cells [2] = assay: ROS assay (DCFH-DA, flow cytometry) in FFA-treated L02 cells; assay type: cell-based, human; settings: FFA-induced L02 cells
Text: (§1) L02 cells were inoculated in 6-well plates at 1 × 10^5 cells/mL, and after completing the lipid-accumulating cell modeling treatment according to the method described in 2.1, the cells were collected and washed with 1× PBS buffer.
Reactive oxygen species (ROS) assay: ROS production was detected in the collected cells using a DCFH-DA fluorescent probe diluted in serum-free medium, and the stained cells were washed with 1× PBS buffer 3 times and then analyzed by flow cytometry.

L02 cells [3] = assay: Effect of 3d on L02 cell proliferation/survival (Figure 1C); assay type: cell-based, human; settings: 3d alone
L02 cells [4] = assay: Apoptosis test (Annexin V/PI, flow cytometry) in FFA-treated L02 cells; assay type: cell-based, human; settings: after FFA treatment
Experimental: as §1
Apoptosis test: Binding Buffer was used to resuspend the modeling-treated cells, cells were stained with Annexin V/PI, and apoptosis was determined using flow cytometry.

RAW264.7 cells = assay: LPS-induced RAW264.7 cell inflammation model (TNF-α, NO, IL-6 in supernatant); assay type: cell-based
Experimental: RAW264.7 cells were bought from Guangzhou Huatuo Biological Technology Co., Ltd. (Guangzhou, China). RAW264.7 cells (1 × 10^5 cells/mL) were inoculated in 24-well plates. After 24 h, LPS (1 μg/mL) was added to induce cell inflammation. Subsequently, curcumin (100 μM), fenofibric acid (FA, 100 μM), or 3d (10, 20, 40 80 μM) was added for 24 h. The cell supernatant was collected for analysis of inflammatory factors, including nitric oxide (NO), interleukin-6 (IL-6), and tumor necrosis factor (TNF-α).

L02 cells [5] = assay: Mitochondrial membrane potential test (JC-1) in FFA-treated L02 cells; assay type: cell-based, human; settings: FFA-induced depolarization; 3d 20 μM
Experimental: as §1
Mitochondrial membrane potential (MMP) test: After the cells were co-incubated with FFAs and drugs for 24 h, the remaining medium was discarded and the cells were washed with 1× PBS buffer before being treated with JC-1 probe dye. A laser confocal microscope was used to take photographs, which were quantitatively analyzed using ImageJ software (V. 1.52a, Wayne Rasband National Institutes of Health, Bethesda, MD, USA).

[6] = LPSs-induced, RAW264.7 macrophages, p < 0.01

CNc1ccc(C(=O)/C=C/c2cc(C)c(OC(C)(C)C(=O)OC(C)(C)C)c(C)c2)cc1 [3d]
intracellular lipid accumulation (Oil Red O morphology) (L02 cells [1]): diminished intracellular lipid accumulation
ALT activity (L02 cells [1]; 3d 10, 20, 40 μM, 24 h): notable reduction
intracellular TG levels (L02 cells [1]; 3d 10, 20, 40 μM, 24 h): notable reduction
Bifidobacterium rise (gut microbiota): 1.9 fold
Lactobacillus increase (gut microbiota): 2.7 fold
Proteobacteria decrease (gut microbiota; p < 0.05): 68%
abundance of Firmicutes and Actinobacteria (gut microbiota; phylum level): significantly increased
abundance of Proteobacteria and Deferribacteres (gut microbiota; phylum level): significantly reduced and returned to normal levels
Shannon index (gut microbiota; α-diversity): decreased
Simpson index (gut microbiota; α-diversity): increased
community richness, Chao1 and ACE indices (gut microbiota; α-diversity): no significant effect
intracellular ROS levels (L02 cells [2]): significant decrease in ROS levels
cell survival of L02 cells (L02 cells [3]): significantly increased cell survival
apoptosis (L02 cells [4]): decrease to near-normal levels
levels of each inflammatory factor (TNF-α, NO, IL-6) (RAW264.7 cells; LPS 1 μg/mL, 3d 10, 20, 40, 80 μM, 24 h): significantly reduced
IL-6 reduction (RAW264.7 cells; [6]): 48%
NO decrease (RAW264.7 cells; [6]): 51%
TNF-α reduction (RAW264.7 cells; [6]): 63%
mitochondrial membrane potential (L02 cells [5]): partially restored
